Results as given in US20250136558A1, “PYRAZINE COMPOUNDS AS IRREVERSIBLE INHIBITORS OF FLT3” (BIOMEA FUSION, INC., priority 2021, published 2025).

Experiments:
Assay type in all cases: cell-based
MOLM-13 = assay: Proliferation inhibition (CellTiter-Glo) in MOLM-13 cells; details: Homo sapiens, 96 h, MOLM-13 AML cells, heterozygous FLT3-ITD, IC50 (4 days)
Method in brief: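 MOLM-13 human AML cells, heterozygous for FLT3-ITD, were grown in RPMI-1640 with 10% heat-inactivated FBS and 1% Pen-Strep. About 10,000 cells in 200 μL were seeded per well of 96-well plates. After 2 hours, compounds from DMSO stocks were dispensed at eight concentrations in duplicate, with 0.2% DMSO as the untreated control. Viability was read as CellTiter-Glo ATP luminescence, and IC50 was obtained from a four-parameter logistic fit.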

MV-4-11 = assay: Proliferation inhibition (CellTiter-Glo) in MV-4-11 cells; details: Homo sapiens, MV4-11, 96 h, MV-4-11 AML cells, homozygous FLT3-ITD, IC50 (4 days)
Method in brief: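 MV-4-11 human AML cells (homozygous FLT3-ITD) grown in RPMI-1640 with 10% heat-inactivated FBS and 1% Pen-Strep were seeded at about 10,000 cells per 200 μL in 96 well plates. Two hours later, compounds were dispensed at eight concentrations in duplicate. Viability was measured by CellTiter-Glo luminescence, and IC50 values came from four-parameter logistic non-linear regression against untreated cells (0.2% DMSO).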

K-562 = assay: Proliferation inhibition (CellTiter-Glo) in K-562 cells; details: Homo sapiens, K562, 96 h, K-562 CML cells, no FLT3 mutations, IC50 (4 days)
Method in brief: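 The CML line […] (ATCC: CRL-3343) was cultured in RPMI-1640 with 10% heat-inactivated FBS and 1% Pen-Strep at 37° C. Cells were seeded at about 10,000 per 200 μL in 96-well plates, and test compound was dispensed 2 hours later at eight concentrations in duplicate. Viability was measured as ATP luminescence with CellTiter-Glo. Untreated cells (0.2% DMSO) defined 100% proliferation, and IC50 values came from four-parameter logistic fits.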

## C=CC(=O)N(C)[C@@H](C)C(=O)NCCNc1cc(Nc2nc(NC3CCOCC3)c(CC)nc2C(N)=O)ccn1 [Compound 40, 6-ethyl-3-[[2-[2-[[(2S)-2-[methyl(prop-2-enoyl)amino]propanoyl]amino]ethylamino]-4-pyridyl]amino]-5-(tetrahydropyran-4-ylamino)pyrazine-2-carboxamide]
MOLM-13
  IC50: 1 to 10 nM
MV-4-11
  IC50: 1 to 10 nM
K-562
  IC50: > 500 nM

## C=CC(=O)NCC#Cc1cccc(Nc2nc(NC3CCOCC3)c(CC)nc2C(N)=O)c1 [Compound 9, 3-((3-(3-Acrylamidoprop-1-yn-1-yl)phenyl)amino)-6-ethyl-5-((tetrahydro-2H-pyran-4-yl)amino)pyrazine-2-carboxamide]
MOLM-13
  IC50: 10 to 100 nM
MV-4-11
  IC50: 10 to 100 nM
K-562
  IC50: > 500 nM

## C=CC(=O)NCCCOc1cccc(Nc2nc(NC3CCOCC3)c(CC)nc2C(N)=O)c1 [Compound 3, 3-((3-(3-Acrylamidopropoxy)phenyl)amino)-6-ethyl-5-((tetrahydro-2H-pyran-4-yl)amino)pyrazine-2-carboxamide]
MOLM-13
  IC50: 100 to 500 nM
MV-4-11
  IC50: 100 to 500 nM
K-562
  IC50: > 500 nM

## C=CC(=O)NCCCNc1cc(Nc2nc(NC3CCOCC3)c(CC)nc2C(N)=O)ccn1 [Compound 24, 3-((2-((3-Acrylamidopropyl)amino)pyridin-4-yl)amino)-6-ethyl-5-((tetrahydro-2H-pyran-4-yl)amino)pyrazine-2-carboxamide]
MOLM-13
  IC50: 10 to 100 nM
MV-4-11
  IC50: 10 to 100 nM
K-562
  IC50: > 500 nM

## CCc1nc(C(N)=O)c(Nc2cccc(OCCCNC(=O)[C@H](C)N(C)C(=O)/C=C/CN(C)C)c2)nc1N(C)C [Compound 118, (S,E)-5-(dimethylamino)-3-((3-(3-(2-(4-(dimethylamino)-N-methylbut-2-enamido)propanamido)propoxy)phenyl)amino)-6-ethylpyrazine-2-carboxamide]
MOLM-13
  IC50: 1 to 10 nM
MV-4-11
  IC50: < 1 nM
K-562
  IC50: > 500 nM

## CC#CC(=O)N(C)[C@@H](C)C(=O)NCCc1cccc(Nc2nc(C3CC3)c(C)nc2C(N)=O)c1 [Compound 235, (S)-5-cyclopropyl-6-methyl-3-((3-(2-(2-(N-methylbut-2-ynamido)propanamido)ethyl)phenyl)amino)pyrazine-2-carboxamide]
MOLM-13
  IC50: > 500 nM
MV-4-11
  IC50: 10 to 100 nM
K-562
  IC50: > 500 nM

## CC#CC(=O)N(C)[C@@H](C)C(=O)NCCCOc1cc(F)cc(Nc2nc(NC3CCOCC3)c(CC)nc2C(N)=O)c1 [Compound 128, (S)-6-ethyl-3-((3-fluoro-5-(3-(2-(N-methylbut-2-ynamido)propanamido)propoxy)phenyl)amino)-5-((tetrahydro-2H-pyran-4-yl)amino)pyrazine-2-carboxamide]
MOLM-13
  IC50: 1 to 10 nM
MV-4-11
  IC50: 1 to 10 nM
K-562
  IC50: > 500 nM

## CCc1nc(C(N)=O)c(Nc2cc(C#CCNC(=O)[C@H](C)N(C)C(=O)/C=C/CN(C)C)cc(OC)c2)nc1NC1CCOCC1 [Compound 103, 3-[3-[3-[[(2S)-2-[[(E)-4-(dimethylamino)but-2-enoyl]-methyl-amino]propanoyl]amino]prop-1-ynyl]-5-methoxy-anilino]-6-ethyl-5-(tetrahydropyran-4-ylamino)pyrazine-2-carboxamide]
MOLM-13
  IC50: 1 to 10 nM
MV-4-11
  IC50: < 1 nM
K-562
  IC50: > 500 nM

## CCc1nc(C(N)=O)c(Nc2cccc(OCCCNC(=O)[C@H](C)N(C)C(=O)/C=C/CN(C)C)c2)nc1NC(CC)CC [Compound 122, (S,E)-3-((3-(3-(2-(4-(dimethylamino)-N-methylbut-2-enamido)propanamido)propoxy)phenyl)amino)-6-ethyl-5-(pentan-3-ylamino)pyrazine-2-carboxamide]
MOLM-13
  IC50: < 1 nM
MV-4-11
  IC50: < 1 nM
K-562
  IC50: > 500 nM

## C#CC(=O)NCCC#Cc1cccc(Nc2nc(NC3CCOCC3)c(CC)nc2C(N)=O)c1 [Compound 15, 6-Ethyl-3-((3-(4-propiolamidobut-1-yn-1-yl)phenyl)amino)-5-((tetrahydro-2H-pyran-4-yl)amino)pyrazine-2-carboxamide]
MOLM-13
  IC50: 10 to 100 nM
MV-4-11
  IC50: 10 to 100 nM
K-562
  IC50: > 500 nM
